Data from patent US11959916B2, “Method, system, and program for supplying immunodynamics-related information” (priority 2017, dated 2024).

Test system: eosinophil
Experiment: Eosinophil count in peripheral blood of the prostate cancer subject
Conditions: Claritin in addition to Allegra from July 1, 2016

Structure (SMILES): CC(C)(C(=O)O)c1ccc(C(O)CCCN2CCC(C(O)(c3ccccc3)c3ccccc3)CC2)cc1 (stereo not shown) [Allegra, fexofenadine]
- eosinophil count in peripheral blood, change in words: started to decrease
